From patent US20250108038A1 (priority 2023, published 2025) come the findings set out here.

One data set relates to human red blood cells. The data set can be described thus: Hemolysis study in human blood. The data set is classed as cell-based. Conditions: 60 min, 37° C. How it is done:
FIG. 4A. […] Compound I-19 in human blood. Red blood cells were isolated from whole blood and resuspended in PBS. […] (final concentrations 25, 50, and 100 μM) and the mixtures were incubated at 37° C. for 60 min. After the incubation, the samples were centrifuged and the absorbance of 100 μL of supernatant was read at 410 nm. % RBC lysis is expressed relative to 100% lysis control. Values represent mean+SEM of n=3 separate experiments.
FIG. 4B. Hemolytic Potential of Compound I-4 in human blood. Red blood cells were isolated from whole blood and resuspended in PBS. 190 μL of diluted RBC suspension and 10 μL of Compound I-4 solutions were mixed at 0 min. (final concentrations 25, 50, and 100 μM) and the mixtures were incubated at 37° C. for 60 min. After the incubation, the samples were centrifuged and the absorbance of 100 μL of supernatant was read at 410 nm. % RBC lysis is expressed relative to 100% lysis control. Values represent mean+SEM of n=3 separate experiments.
FIG. 4C. Hemolytic Potential of Amphotericin B in human blood (positive assay control). Red blood cells were isolated from whole blood and resuspended in PBS. 190 μL of diluted RBC suspension and 10 μl of amphotericin B solutions were mixed at 0 min. (final concentrations 1, 10, 30, and 100 μM) and the mixtures were incubated at 37° C. for 60 min. After the incubation, the samples were centrifuged and the absorbance of 100 μL of supernatant was read at 410 nm. % RBC lysis is expressed relative to 100% lysis control. Values represent mean+SEM of n=3 separate experiments.
(§1) To a clear 96-well V-bottom polystyrene plate, the test articles (10 μL) and the diluted RBCs (190 μL) from human or rat blood were mixed for final concentrations of 25, 50, and 100 μM. The reaction mixture was incubated at 37° C. for 60 min. Following the exposure period, the plates were centrifuged. After centrifugation, 70 μL of supernatant (without disturbing the pellet) was transferred to a clean and clear polystyrene flat bottomed 96-well plate and the absorbance of the sample at a single wavelength was measured using a BioTech Synergy H1 Plate Reader at a wavelength of 410 nm. The positive control for this assay was amphotericin B test at concentrations of 1, 10, 30, and 100 μM.

In a further data set the test system is rat red blood cells. The data set can be described thus: Hemolysis study in rat blood. In kind it is cell-based. Particulars: 60 min, 37° C. As to the method: FIG. 6A. […] Compound I-19 in rat blood. Red blood cells were isolated from whole blood and resuspended in PBS. […] (final concentrations 25, 50, and 100 μM) and the mixtures were incubated at 37° C. for 60 min. After the incubation, the samples were centrifuged and the absorbance of 100 μL of supernatant was read at 410 nm. % RBC lysis is expressed relative to 100% lysis control. Values represent mean+SEM of n=3 separate experiments.
FIG. 6B. […] Compound I-19 in rat blood. Red blood cells were isolated from whole blood and resuspended in PBS. […] (final concentrations 25, 50, and 100 μM) and the mixtures were incubated at 37° C. for 60 min. After the incubation, the samples were centrifuged and the absorbance of 100 μl of supernatant was read at 410 nm. % RBC lysis is expressed relative to 100% lysis control. Values represent mean+SEM of n=3 separate experiments.
FIG. 6C. Hemolytic Potential of Amphotericin B in rat blood (positive assay control). Red blood cells were isolated from whole blood and resuspended in PBS. 190 μL of diluted RBC suspension and 10 μL of amphotericin B solutions were mixed at 0 min. (final concentrations 1, 10, 30, and 100 μM) and the mixtures were incubated at 37° C. for 60 min. After the incubation, the samples were centrifuged and the absorbance of 100 μL of supernatant was read at 410 nm. % RBC lysis is expressed relative to 100% lysis control. Values represent mean+SEM of n=3 separate experiments.
as §1

For a further data set, the system named is Wistar rats. In kind it is in vivo, Wistar rat. How it is done: Animals were trained in eight automated 5C-SRTT operant chambers (Med Associates, St. Albans, VT, USA), controlled by MedPC software (Med Associates). Briefly, each operant chamber was equipped with 5 apertures containing a photocell beam to detect nose pokes and a lamp (2.8 W) that could be illuminated randomly at varying durations. Food pellets (45 mg chow pellet, BioServ, Frenchtown, NJ, USA) were delivered automatically to a magazine, located on the opposite wall to the nose pokes, that was also equipped with a light that turned on to indicate that a pellet had been dispensed. The house-light remained on for the entire session unless an error or omission occurred. Training sessions began with the delivery of a food reward and retrieval triggered the first trial. […] Training began with the stimulus duration set at 10 sec, a limited hold period of 5 sec and an ITI of 5 sec. […] Sessions ended when 40 minutes had lapsed or 100 trials had been completed.
Upon meeting the performance criteria, animals were assessed in the vSD version of the task where the following stimulus durations were presented in a pseudorandom manner: 0.3, 0.6 and 0.9 sec. Later, subjects were assessed in the vITI version where 2.5, 5.0 and 10.0 sec ITIs were employed in a pseudorandom manner. Performance parameters measured were: % hit ((# correct/(# correct+# incorrect including omissions))×100); % correct ((# correct/(# correct+# incorrect excluding omissions))×100); premature responses (# of nose-pokes into any aperture after trial initiation but before onset of the stimulus light); timeout responses (# of nose pokes into any aperture during a timeout period), perseverative responses (# of nose pokes occurring after the correct response had been made but before reward collection); # of food magazine head entries, omissions and total trials completed. The latency to correct response (time taken from the onset of the nose poke light stimulus to making the correct nose poke response), latency to incorrect response (time taken from onset of nose poke light stimulus to making the incorrect nose poke response), and latency to reward (i.e., the magazine latency, time taken from making a correct nose poke response to retrieving the reward from the magazine) was also recorded.
Drug doses and vehicle were administered in a pseudorandom fashion. Drug or vehicle sessions were performed 1-2 times per week with maintenance training (behavioral testing without drug or vehicle injections) interspersed.
All data were collated and entered into Microsoft Excel spreadsheets. The data were subsequently imported into StatView 5.0 for statistical analyses. One and two factor analysis of variance (ANOVA) tests were used with repeated measures when indicated, followed by Fisher LSD or Student Newman Keuls as post-hoc tests. All results were expressed as the mean (±S.E.M.). Differences between means from experimental groups were considered significant at the p<0.05 level. The statistical F values and degrees of freedom associated with the two factor ANOVA analyses are provided in the text of this report. Please refer to the statistical reports in the appendices for the values associated with one factor ANOVAs for the overall means and overall total values.

For another data set, the target named is T1, OAT3 (Homo sapiens, UniProt Q8TCC7).
T1 sequence (Q8TCC7 1-542): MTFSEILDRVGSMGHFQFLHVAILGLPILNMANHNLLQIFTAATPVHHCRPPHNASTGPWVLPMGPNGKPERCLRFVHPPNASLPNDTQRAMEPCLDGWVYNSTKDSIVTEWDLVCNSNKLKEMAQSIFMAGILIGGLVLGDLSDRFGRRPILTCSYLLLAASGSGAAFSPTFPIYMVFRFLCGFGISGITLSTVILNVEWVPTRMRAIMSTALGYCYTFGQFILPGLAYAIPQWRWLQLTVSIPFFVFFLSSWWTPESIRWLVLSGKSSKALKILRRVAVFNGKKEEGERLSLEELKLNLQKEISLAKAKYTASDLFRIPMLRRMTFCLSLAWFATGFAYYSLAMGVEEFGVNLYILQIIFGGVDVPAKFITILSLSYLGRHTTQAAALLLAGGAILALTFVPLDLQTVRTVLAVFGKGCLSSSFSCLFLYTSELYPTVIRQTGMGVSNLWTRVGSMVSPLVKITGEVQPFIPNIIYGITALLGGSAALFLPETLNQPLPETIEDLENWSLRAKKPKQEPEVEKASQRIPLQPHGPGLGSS
Nature of the data set: Uptake transporter inhibition assay, OAT3 (estrone-3-sulfate). Particulars: for inhibition at 500 μM: human. How it is done: Uptake experiments were performed using HEK293 cells stably expressing the respective uptake transporters. The assays were conducted according to the actual SOLVO uptake transporter assay protocols (PR-ASY-UPT-General Protocol for Uptake Transporter Inhibition Assays).
Cells were cultured at 37° C. in a humidified atmosphere containing 5% CO2 and were plated onto standard 96-well tissue culture plates.
Before the experiment, the medium was removed, and the cells were washed twice with 100 μL of pre-warmed (37° C.) assay buffer listed in Table 15. The cells were pre-incubated at 37° C. for 30 minutes in assay buffer containing the test article at appropriate concentrations (Table 16), appropriate solvents for solvent controls and the reference inhibitor for reference inhibitor wells. After the pre-incubation step solutions were removed. Uptake experiments were performed at 37° C. in 50 μL of assay buffer containing the probe substrate and the test article or solvent and controls.
After the experiment, cells were washed twice with 100 μL of appropriate cold buffer and lysed with 150 μL scintillation cocktail. Radiolabeled probe substrate transport was determined by liquid scintillation counting.
Uptake of the probe substrate in control cells provided background activity values for all data points.

In data set [1] the test system is orexin/tTA; Tet-O diphtheria toxin A mice (DTA mice). The data set is classed as in vivo, mouse. Particulars: 6 h after dosing at ZT12; for cataplexy (C) time: Compound I-19 0.3, 1, 3 mg/kg i.p., Compound I-4 0.3, 1, 3 mg/kg p.o., Des 5 mg/kg p.o.
Setting [2] is: test articles 25, 50, 100 μM, amphotericin B 1, 10, 30, 100 μM.

Like-named read-outs stand apart in the source and are kept apart here.

By EC50 is commonly meant the concentration giving half of the maximal effect. The inhibition is how much of the control response was suppressed.

As for `C[C@@H]1[C@H](O)[C@@H](C)/C=C/C=C/C=C/C=C/C=C/C=C/C=C/[C@H](O[C@@H]2O[C@H](C)[C@@H](O)[C@H](N)[C@@H]2O)C[C@@H]2O[C@](O)(C[C@@H](O)C[C@@H](O)[C@H](O)CC[C@@H](O)C[C@@H](O)CC(=O)O[C@H]1C)C[C@H](O)[C@H]2C(=O)O` [amphotericin B, reference compound], the EC50 with human red blood cells (read-out: EC50 (% RBC lysis)) was 7.06 µM; in the data set with rat red blood cells (read-out: EC50 (% RBC lysis)), 4.73 µM. Further, the “% RBC lysis (hemolytic potential)” value in the data set on human red blood cells (setting [2]) and with rat red blood cells (setting [2]) was “dose-dependent increase in % RBC lysis” each time.

With `CN1CCCC1c1cccnc1` (stereo not shown) [nicotine, Nicotine, reference compound], the “% hit rate” value in the data set on Wistar rats (nicotine 0.05-0.2 mg/kg sc, Compound I-4 0.1-3.0 mg/kg ip, Compound I-19 0.03-1.0 mg/kg ip) is listed as “increase in the % hit rate”. In addition, in the data set with Wistar rats (same doses), the “% correct” value is given as “no statistically significant effects”; the Magazine Head Entries entry was “increase in the number of premature responses, timeout responses, magazine head entries”; the Omissions result was “decrease in omissions”; the “number of trials completed” value was “no effect on the total number of trials completed”. Besides, in the data set on Wistar rats (same doses), the perseverative responses result was “no statistically significant effects on perseverative responses or reward latencies”; the premature responses result is listed as “the higher 2 doses of nicotine were associated with an increase”; the “response latencies (correct, incorrect)” value is “modest decrease in the response latencies associated with correct responses”; the reward latencies result is “no statistically significant effects on perseverative responses or reward latencies”. In addition, in the data set on Wistar rats (same doses), the timeout responses result is listed as “increase in the number of premature responses, timeout responses, magazine head entries”.

Molecule `CCCN(CCC)S(=O)(=O)c1ccc(C(=O)O)cc1` [Probenecid] returned a Transporter specific accumulation on OAT3 (500.00 μM nominal, E3S, Table 130) of 291.67 ± 17.04 cpm. Besides, the “Relative transporter specific accumulation” value at OAT3 (500.00 μM, reference inhibitor) is 1.68 ± 0.31 % of control. Also, the inhibition at 500 μM at OAT3 (Relative Inhibition, 500.00 μM nominal, E3S, Table 130) amounted to 98%; at OAT3 (Relative inhibition, 500.00 μM, reference inhibitor) it was 97%.

Regarding `CNCCCN1c2ccccc2CCc2ccccc21` [Desipramine, reference compound], the “latency to REM (effect)” value in data set [1] was “increased the latency to REM onset”. The results for the “cataplexy (C) time” value in data set [1] and in data set [1] (listed as Des) were “decreased significantly for the first 2 h post administration but was not significant overall” and “decreased for the first 2 h post administration but was not significant overall”, respectively. Further, the REM time entry in data set [1] (same doses) is on record as “overall reduction in REM sleep did not reach significance”.
